Results on 19 compounds are retold here after patent US20120101086A1, “THIADIAZOLE DERIVATIVES AND THEIR USE FOR THE TREATMENT OF DISORDERS MEDIATED BY S1P1 RECEPTORS” (GLAXO GROUP LIMITED, priority 2009, published 2012).

The target of data set [1] is T1, S1P1 (Homo sapiens, UniProt P21453). As to the kind of experiment: S1P-1 β-Arrestin recruitment assay. The data set is classed as cell-based. Set-up: host or cells: PathHunter CHO-K1 EDG1 β-Arrestin cell line. As to conditions: PathHunter CHO-K1 EDG1 β-Arrestin cell line, chemi-luminescence. The method, then:
β-Arrestin recruitment assays were carried out using the PathHunter CHO-K1 EDG1 β-Arrestin cell line (DiscoveRx Corporation) in a chemi-luminescence detection assay. This cell line stably expresses β-Arrestin 2 and S1P1 fused to complementing portions of β-galactosidase (‘EA’ and ‘pro-link’, respectively) which associate upon Arrestin recruitment to form functional β-galactosidase enzyme.
Cells were grown to 80% confluency in Growth Medium (F12 nutrient HAMS supplemented with 10% heat-inactivated USA FBS, 1% L-glutamax, 800 m/ml Geneticin and 300 m/ml Hygromycin). Cells were harvested from the flask using Enzyme Free Cell Dissociation Buffer (Gibco) and washed from flasks with Optimem solution (Gibco). Cells were then centrifuged at 1000 rpm for 2-3 min and resuspended in Assay Buffer (Prepared from Sigma kit H1387 supplemented with 20 ml/L HEPES, 4.7 ml/L NaHCO3, 0.1% pluronic acid F-68 solution, 0.1% BSA and adjusted to pH 7.4 using sodium hydroxide at 1×10^6 cells/ml. Cells were dispensed into assay plates containing compounds (100n1/well of a solution of test compound in 100% DMSO) at 1×10^4 cells/well and incubated at 37° C./5% CO2 for 90 min followed by 15 min at room temperature. 5 μl detection mix (1 part Galacton Star, 5 parts Emerald II, 19 parts Assay Buffer; DiscoveRx) were added per well and the plates incubated at room temperature for 60 min. Luminescence was quantified using a Viewlux plate reader.

In data set [2] the target is T1, S1P1. Nature of the data set: S1P1 GTPγS assay. It is filed as biochemical. Set-up: expressed in transfected cells; host or cells: RH7777 cells (membranes). As to conditions: tested in one of the above S1P1 assays (two protocols). The method, then:
The potencies and efficacies of the compounds of this invention for the S1P1 receptor can be determined by GTPγS assay performed on the human cloned receptor as described herein. […] All steps were performed at 4° C. Cells were homogenised within a glass Waring blender for 2 bursts of 15 secs in 200 mls of buffer (50 mM HEPES, 1 mM leupeptin, 25 m/ml bacitracin, 1 mM EDTA, 1 mM PMSF, 2 μM pepstatin A). The blender was plunged into ice for 5 mins after the first burst and 10-40 mins after the final burst to allow foam to dissipate. The material was then spun at 500 g for 20 mins and the supernatant spun for 36 mins at 48,000 g. The pellet was resuspended in the same buffer as above but without PMSF and pepstatin A. The material was then forced through a 0.6 mm needle, made up to the required volume, (usually ×4 the volume of the original cell pellet), aliquoted and stored frozen at—80° C. S1P1 expressing RH7777 membranes (1.5 μg/well) membranes (1.5 μg/well) were homogenised by passing through a 23G needle. These were then adhered to WGA-coated SPA beads (0.125 mg/well) in assay buffer (HEPES 20 mM, MgCl2, 10 mM, NaCl 100 mM and pH adjusted to 7.4 using KOH 5M). GDP 10 μM FAC and saponin 90 μg/ml FAC were also added After 30 minutes precoupling on ice, the bead and membrane suspension was dispensed into white Greiner polypropylene LV 384-well plates (5 μl/well), containing 0.1 μl of compound. 5 μl/well [^35S]-GTPγS (0.5 nM for S1P1 or 0.3 nM for S1P3 final radioligand concentration) made in assay buffer was then added to the plates. The final assay cocktail (10.1 μl) was then sealed, spun on a centrifuge, then read immediately on a Viewlux instrument. Alternatively, after 30 minutes precoupling on ice, the bead and membrane suspension was mixed with ^35S]-GTPγS (0.5 nM final radioligand concentration) in assay buffer (HEPES 20 mM, MgCl2 10 mM, NaCl 100 mM and pH adjusted to 7.4 using KOH 5M) in a 1:1 ratio. The bead, membrane and radioligand suspension was dispensed into white Greiner polypropylene low volume 384-well plates (10 μl/well), containing 0.1 μl of a solution of test compound in 100% DMSO. The final assay cocktail (10.1 μl) was then sealed, spun on a centrifuge, then read immediately on a Viewlux instrument.

For data set [3] the following is noted: clinical studies, first 24 hours of treatment; cited from earlier work.
Data set [4] has as its system circulating lymphocytes. As to conditions: animals and man; cited from earlier work.

Structures are written as SMILES. pEC50: −log10 of the molar value. Counter-ions that a name gives are not always drawn. Where only a bound is given, the exact number is not on record here.

T1 sequence (P21453 whole entry, the tested form may be a part): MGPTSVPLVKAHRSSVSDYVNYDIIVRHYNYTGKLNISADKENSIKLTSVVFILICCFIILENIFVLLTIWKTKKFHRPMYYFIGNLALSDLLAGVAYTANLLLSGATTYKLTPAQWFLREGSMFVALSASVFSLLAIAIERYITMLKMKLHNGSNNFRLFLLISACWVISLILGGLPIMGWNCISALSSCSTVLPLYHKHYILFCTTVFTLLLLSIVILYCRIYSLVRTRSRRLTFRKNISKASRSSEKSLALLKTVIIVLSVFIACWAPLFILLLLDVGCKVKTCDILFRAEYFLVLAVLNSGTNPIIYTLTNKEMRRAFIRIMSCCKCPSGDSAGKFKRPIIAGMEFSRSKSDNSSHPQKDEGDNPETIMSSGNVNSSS

`COC(=O)[C@H](O)CN1CCc2nn(-c3nnc(-c4ccc(OC(C)C)c(Cl)c4)s3)c(C)c2C1` [Example 41, methyl (2R)-3-[2-(5-{3-chloro-4-[(1-methylethyl)oxy]phenyl}-1,3,4-thiadiazol-2-yl)-3-methyl-2,4,6,7-tetrahydro-5H-pyrazolo[4,3-c]pyridin-5-yl]-2-hydroxypropanoate] showed a pEC50 in data set [1] of at least 8.00.
Same read-out and setting: as for `Cc1c2c(nn1-c1nnc(-c3ccc(OC(C)C)c(Cl)c3)s1)CCN(C[C@H](O)CO)C2` [Example 42, (2S)-3-[2-(5-{3-chloro-4-[(1-methylethyl)oxy]phenyl}-1,3,4-thiadiazol-2-yl)-3-methyl-2,4,6,7-tetrahydro-5H-pyrazolo[4,3-c]pyridin-5-yl]-1,2-propanediol formic acid salt], the figure is at least 7.00.
On to `Cc1c2c(nn1-c1nnc(-c3ccc(OC(C)C)c(Cl)c3)s1)CCN(CCC(=O)O)C2` [Example 2, 3-[2-(5-{3-Chloro-4-[(1-methylethyl)oxy]phenyl}-1,3,4-thiadiazol-2-yl)-3-methyl-2,4,6,7-tetrahydro-5H-pyrazolo[4,3-c]pyridin-5-yl]propanoic acid], for which the negative-log EC50 (pEC50) in data set [1] and in data set [2] was at least 8.00 in each case.
As for `CCCCCCCCc1ccc(CCC(N)(CO)CO)cc1` [FTY720], the bradycardia result in data set [3] is on record as “results in bradycardia”. In addition, the “effect on circulating lymphocytes” value in data set [4] is listed as “reduce circulating lymphocytes”.
Regarding `Cc1c2c(nn1-c1nnc(-c3ccc(OC(C)C)c(C#N)c3)s1)CCN(C(=O)CNC[C@H](O)CO)C2` [Example 34, 5-[5-(5-{N-[(2S)-2,3-dihydroxypropyl]glycyl}-3-methyl-4,5,6,7-tetrahydro-2H-pyrazolo[4,3-c]pyridin-2-yl)-1,3,4-thiadiazol-2-yl]-2-[(1-methylethyl)oxy]benzonitrile], the negative-log EC50 (pEC50) in data set [1] was at least 8.00.
`Cc1c2c(nn1-c1nnc(-c3ccc(OC(C)C)c(C#N)c3)s1)CCN(C(=O)CNC[C@H](C)O)C2` [Example 33, 5-[5-(5-{N-[(2S)-2-hydroxypropyl]glycyl}-3-methyl-4,5,6,7-tetrahydro-2H-pyrazolo[4,3-c]pyridin-2-yl)-1,3,4-thiadiazol-2-yl]-2-[(1-methylethyl)oxy]benzonitrile] had a negative-log EC50 (pEC50) in data set [1] of at least 7.00.
The same measure, in the same setting: with `Cc1c2c(nn1-c1nnc(-c3ccc(OC(C)C)c(C#N)c3)s1)CCN(CCC(=O)O)C2` [Example 4, 3-[2-(5-{3-Cyano-4-[(1-methylethyl)oxy]phenyl}-1,3,4-thiadiazol-2-yl)-3-methyl-2,4,6,7-tetrahydro-5H-pyrazolo[4,3-c]pyridin-5-yl]propanoic acid trifluoroacetic acid salt] the figure was at least 8.00.
`Cc1c2c(nn1-c1nnc(-c3ccc(OC(C)C)c(C#N)c3)s1)CCN(C[C@H](O)CO)C2` [Example 26, 5-(5-{5-[(2S)-2,3-dihydroxypropyl]-3-methyl-4,5,6,7-tetrahydro-2H-pyrazolo[4,3-c]pyridin-2-yl}-1,3,4-thiadiazol-2-yl)-2-[(1-methylethyl)oxy]benzonitrile] had a negative logarithm of the EC50 (pEC50) in data set [1] of at least 8.00.
For the compound `CC(C)Oc1ccc(-c2nnc(-n3cc4c(n3)CCN(CCCC(=O)O)C4)s2)cc1Cl` [Example 7, 4-[2-(5-{3-Chloro-4-[(1-methylethyl)oxy]phenyl}-1,3,4-thiadiazol-2-yl)-2,4,6,7-tetrahydro-5H-pyrazolo[4,3-c]pyridin-5-yl]butanoic acid], the pEC50 in data set [1] was at least 8.00; in data set [2], at least 7.00.
In data set [1], `CC(C)Oc1ccc(-c2nnc(-n3cc4c(n3)CCN(CCCC(=O)O)C4)s2)cc1C#N` [Example 13, 4-[2-(5-{3-Cyano-4-[(1-methylethyl)oxy]phenyl}-1,3,4-thiadiazol-2-yl)-2,4,6,7-tetrahydro-5H-pyrazolo[4,3-c]pyridin-5-yl]butanoic acid] gave a pEC50 of at least 8.00.
Same read-out and setting: as for `Cc1c2c(nn1-c1nnc(-c3ccc(OC(C)C)c(C#N)c3)s1)CCN(C(=O)CN[C@H](C)CO)C2` [Example 30, 5-[5-(5-{N—[(1R)-2-hydroxy-1-methylethyl]glycyl}-3-methyl-4,5,6,7-tetrahydro-2H-pyrazolo[4,3-c]pyridin-2-yl)-1,3,4-thiadiazol-2-yl]-2-[(1-methylethyl)oxy]benzonitrile], the figure is at least 8.00; as for `Cc1c2c(nn1-c1nnc(-c3ccc(OC(C)C)c(C#N)c3)s1)CCN(C(=O)CNCCO)C2` [Example 35, 5-(5-{5-[N-(2-hydroxyethyl)glycyl]-3-methyl-4,5,6,7-tetrahydro-2H-pyrazolo[4,3-c]pyridin-2-yl}-1,3,4-thiadiazol-2-yl)-2-[(1-methylethyl)oxy]benzonitrile], at least 8.00.
With `CC(C)Oc1ccc(-c2nnc(-n3cc4c(n3)CCN(CCC(=O)O)C4)s2)cc1Cl` [Example 8, 3-[2-(5-{3-Chloro-4-[(1-methylethyl)oxy]phenyl}-1,3,4-thiadiazol-2-yl)-2,4,6,7-tetrahydro-5H-pyrazolo[4,3-c]pyridin-5-yl]propanoic acid], the pEC50 in data set [1] is at least 8.00; in data set [2] it was at least 7.00.
For `CC(C)Oc1ccc(-c2nnc(-n3cc4c(n3)CCN(CCC(=O)O)C4)s2)cc1C#N` [Example 12, 3-[2-(5-{3-Cyano-4-[(1-methylethyl)oxy]phenyl}-1,3,4-thiadiazol-2-yl)-2,4,6,7-tetrahydro-5H-pyrazolo[4,3-c]pyridin-5-yl]propanoic acid], in that order: at least 8.00 and at least 7.00.
For the compound `Cc1c2c(nn1-c1nnc(-c3ccc(OC(C)C)c(C#N)c3)s1)CCN(C(CO)CO)C2` [Example 25, 5-(5-{5-[2-hydroxy-1-(hydroxymethyl)ethyl]-3-methyl-4,5,6,7-tetrahydro-2H-pyrazolo[4,3-c]pyridin-2-yl}-1,3,4-thiadiazol-2-yl)-2-[(1-methylethyl)oxy]benzonitrile], the negative-log EC50 (pEC50) in data set [1] is at least 8.00.
Still for that read-out and setting: as for `Cc1c2c(nn1-c1nnc(-c3ccc(OC(C)C)c(C#N)c3)s1)CCN(CCC(N)=O)C2` [Example 5, 3-[2-(5-{3-Cyano-4-[(1-methylethyl)oxy]phenyl}-1,3,4-thiadiazol-2-yl)-3-methyl-2,4,6,7-tetrahydro-5H-pyrazolo[4,3-c]pyridin-5-yl]propanamide], the figure is at least 8.00.
The same measure, in the same setting: as for `CC(C)Oc1ccc(-c2nnc(-n3ncc4c3CCN(CCC(=O)O)C4)s2)cc1Cl` [Example 15, 3-[1-(5-{3-Chloro-4-[(1-methylethyl)oxy]phenyl}-1,3,4-thiadiazol-2-yl)-1,4,6,7-tetrahydro-5H-pyrazolo[4,3-c]pyridin-5-yl]propanoic acid], the figure is at least 7.00; as for `Cc1c2c(nn1-c1nnc(-c3ccc(OC(C)C)c(C#N)c3)s1)CCN(C(=O)CNC(CO)CO)C2` [Example 36, 5-[5-(5-{N-[2-hydroxy-1-(hydroxymethyl)ethyl]glycyl}-3-methyl-4,5,6,7-tetrahydro-2H-pyrazolo[4,3-c]pyridin-2-yl)-1,3,4-thiadiazol-2-yl]-2-[(1-methylethyl)oxy]benzonitrile], at least 8.00; as for `Cc1c2c(nn1-c1nnc(-c3ccc(OC(C)C)c(C#N)c3)s1)CCNC2` [Example 3, 2-[(1-Methylethyl)oxy]-5-[5-(3-methyl-4,5,6,7-tetrahydro-2H-pyrazolo[4,3-c]pyridin-2-yl)-1,3,4-thiadiazol-2-yl]benzonitrile], at least 7.00.
